Measurements: patent US20250122218A1, “MODULATORS OF CYSTIC FIBROSIS TRANSMEMBRANE CONDUCTANCE REGULATOR” (Vertex Pharmaceuticals Incorporated, priority 2022, published 2025)

Target: T1, CFTR in F508del/MF-HBE cells (Homo sapiens, UniProt P13569, DEL508-508)
T1 construct: human bronchial epithelial (HBE) cells derived from CF subjects heterozygous for F508del and a minimal function CFTR mutation; endogenous in cells; host or cells: primary human bronchial epithelial cells from CF subjects (F508del/MF-HBE)
T1 sequence (P13569 with tags, fused parts or gaps DEL508-508): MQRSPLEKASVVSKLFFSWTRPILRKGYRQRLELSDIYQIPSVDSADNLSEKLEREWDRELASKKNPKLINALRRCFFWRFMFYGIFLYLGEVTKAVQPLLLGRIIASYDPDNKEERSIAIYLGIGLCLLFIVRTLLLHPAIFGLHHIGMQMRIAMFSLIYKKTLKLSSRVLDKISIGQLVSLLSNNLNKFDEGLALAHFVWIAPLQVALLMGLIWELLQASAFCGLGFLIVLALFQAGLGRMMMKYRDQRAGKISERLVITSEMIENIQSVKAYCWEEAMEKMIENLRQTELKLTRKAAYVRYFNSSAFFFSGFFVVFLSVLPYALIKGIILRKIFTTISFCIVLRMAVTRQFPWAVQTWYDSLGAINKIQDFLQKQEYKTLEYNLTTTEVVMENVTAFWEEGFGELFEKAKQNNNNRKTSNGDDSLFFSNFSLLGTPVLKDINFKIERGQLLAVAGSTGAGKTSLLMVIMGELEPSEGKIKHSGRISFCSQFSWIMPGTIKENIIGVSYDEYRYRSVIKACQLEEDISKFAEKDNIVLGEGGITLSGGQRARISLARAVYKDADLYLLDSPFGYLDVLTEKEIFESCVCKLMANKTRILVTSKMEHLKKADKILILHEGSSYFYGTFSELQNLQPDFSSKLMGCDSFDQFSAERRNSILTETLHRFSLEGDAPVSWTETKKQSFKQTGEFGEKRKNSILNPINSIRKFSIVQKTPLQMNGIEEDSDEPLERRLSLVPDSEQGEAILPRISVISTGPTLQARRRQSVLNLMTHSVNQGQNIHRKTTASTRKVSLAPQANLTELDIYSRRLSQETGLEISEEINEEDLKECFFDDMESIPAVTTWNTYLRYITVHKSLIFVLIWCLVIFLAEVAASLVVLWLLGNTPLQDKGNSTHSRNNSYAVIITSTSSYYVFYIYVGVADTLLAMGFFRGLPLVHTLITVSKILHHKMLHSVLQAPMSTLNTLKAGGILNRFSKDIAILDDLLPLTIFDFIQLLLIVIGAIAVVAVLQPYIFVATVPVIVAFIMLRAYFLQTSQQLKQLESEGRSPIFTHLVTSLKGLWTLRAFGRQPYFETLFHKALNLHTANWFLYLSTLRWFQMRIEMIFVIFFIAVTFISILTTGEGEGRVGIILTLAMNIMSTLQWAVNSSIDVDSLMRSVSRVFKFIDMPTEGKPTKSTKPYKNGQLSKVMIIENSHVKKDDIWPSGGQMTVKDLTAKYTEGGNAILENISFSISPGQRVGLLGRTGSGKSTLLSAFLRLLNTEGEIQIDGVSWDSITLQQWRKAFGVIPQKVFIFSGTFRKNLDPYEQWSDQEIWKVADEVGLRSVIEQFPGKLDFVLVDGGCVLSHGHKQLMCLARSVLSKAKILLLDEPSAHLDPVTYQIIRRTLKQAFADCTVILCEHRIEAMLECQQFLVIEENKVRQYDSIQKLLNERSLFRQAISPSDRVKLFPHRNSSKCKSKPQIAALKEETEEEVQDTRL
Assay: Ussing chamber assay of CFTR-mediated short-circuit currents (identification of potentiator compounds)
Assay type: cell-based
Conditions: potentiator incubated 18-24 hours at 37° C. in combination with 10 μM corrector, in the presence of 20% human serum, CFTR-mediated ISC
Method: Ussing chamber experiments were performed using human bronchial epithelial (HBE) cells derived from CF subjects heterozygous for F508del and a minimal function CFTR mutation (F508del/MF-HBE) and cultured as previously described (Neuberger T, Burton B, Clark H, Van Goor F; Methods Mol. Biol. 2011:741:39-54). After four days the apical media was removed, and the cells were grown at an air liquid interface for >14 days prior to use.
To isolate the CFTR-mediated short-circuit (ISC) current, F508del/MF-HBE grown on Costar® Snapwell™ cell culture inserts were mounted in an Ussing chamber and the transepithelial ISC was measured under voltage-clamp recording conditions (Vhold=0 mV) at 37° C. The basolateral solution contained (in mM) 145 NaCl, 0.83 K2HPO4, 3.3 KH2PO4, 1.2 MgCl2, 1.2 CaCl2), 10 Glucose, 10 HEPES (pH adjusted to 7.4 with NaOH) and the apical solution contained (in mM) 145 NaGluconate, 1.2 MgCl2, 1.2 CaCl2), 10 glucose, 10 HEPES (pH adjusted to 7.4 with NaOH) and 30 μM amiloride to block the epithelial sodium channel. Forskolin (20 μM) was added to the apical surface to activate CFTR, followed by apical addition of a CFTR inhibitor cocktail consisting of BPO, GlyH-101 and CFTR inhibitor 172 (each at 20 μM final assay concentration) to specifically isolate CFTR currents. The CFTR-mediated ISC (μA/cm^2) for each condition was determined from the peak forskolin response to the steady-state current following inhibition.
The activity of the CFTR potentiator compounds on the CFTR-mediated ISC was determined in Ussing chamber studies as described above. The F508del/MF-HBE cell cultures were incubated with the potentiator compounds at a range of concentrations in combination with 10 μM (14S)-8-[3-(2-{dispiro[2.0.2.1]heptan-7-yl}ethoxy)-1H-pyrazol-1-yl]-12,12-dimethyl-2λ^6-thia-3,9,11,18,23-pentaazatetracyclo[17.3.1.111,14.05,10]tetracosa-1(22),5,7,9,19(23),20-hexaene-2,2,4-trione for 18-24 hours at 37° C. and in the presence of 20% human serum. The concentration of potentiator compounds and (14S)-8-[3-(2-{dispiro[2.0.2.1]heptan-7-yl}ethoxy)-1H-pyrazol-1-yl]-12,12-dimethyl-2λ^6-thia-3,9,11,18,23-pentaazatetracyclo[17.3.1.111,14.05,10]tetracosa-1(22),5,7,9,19(23),20-hexaene-2,2,4-trione used during the 18-24 hours incubations was kept constant throughout the Ussing chamber measurement of the CFTR-mediated ISC to ensure compounds were present throughout the entire experiment. The efficacy and potency of the putative F508del potentiators was compared to that of the known potentiator, ivacaftor (N-[2,4-bis(1,1-dimethylethyl)-5-hydroxyphenyl]-1,4-dihydro-4-oxoquinoline-3-carboxamide).

| Structure (SMILES) | EC50 |
| --- | --- |
| CC(=O)N1CCCCCC(O)(C(F)(F)F)C2=NN=C(O2)c2nc(c(C(F)(F)F)cc2N)C1 (single isomer, unassigned) [Compound 20, 1-[17-amino-6-hydroxy-6,15-bis(trifluoromethyl)-19-oxa-3,4,12,18-tetrazatricyclo[12.3.1.12,5]nonadeca-1(18),2,4,14,16-pentaen-12-yl]ethanone] | < 500 nM |
| CC(=O)N1CCCCCC(O)(C(F)(F)F)C2=NN=C(O2)c2nc(c(C(F)(F)F)cc2N)C1 (single isomer, unassigned) [Compound 21, 1-[17-amino-6-hydroxy-6,15-bis(trifluoromethyl)-19-oxa-3,4,12,18-tetrazatricyclo[12.3.1.12,5]nonadeca-1(18),2,4,14,16-pentaen-12-yl]ethanone] | > 1000 nM |
| Nc1cc(C(F)(F)F)c2nc1-c1nnc(o1)C(O)(C(F)(F)F)CCCCCN(C(=O)C1CCC1)C2 (single isomer, unassigned) [Compound 22, [17-amino-6-hydroxy-6,15-bis(trifluoromethyl)-19-oxa-3,4,12,18-tetrazatricyclo[12.3.1.12,5]nonadeca-1(18),2,4,14,16-pentaen-12-yl]-cyclobutyl-methanone] | < 500 nM |
| Nc1cc(C(F)(F)F)c2nc1-c1nnc(o1)C(O)(C(F)(F)F)CCCCCN(C(=O)C1CCC1)C2 (single isomer, unassigned) [Compound 23, [17-amino-6-hydroxy-6,15-bis(trifluoromethyl)-19-oxa-3,4,12,18-tetrazatricyclo[12.3.1.12,5]nonadeca-1(18),2,4,14,16-pentaen-12-yl]-cyclobutyl-methanone] | > 1000 nM |
| Nc1cc(C(F)(F)F)c2nc1-c1nnc(o1)C(O)(C(F)(F)F)CCCCCCC2(O)C(F)(F)F (single isomer, unassigned) [Compound 25, 17-amino-6,13,15-tris(trifluoromethyl)-19-oxa-3,4,18-triazatricyclo[12.3.1.12,5]nonadeca-1(18),2,4,14,16-pentaene-6,13-diol] | > 1000 nM |
| Nc1cc(C(F)(F)F)c2nc1-c1nnc(o1)C(O)(C(F)(F)F)CCCCCCC2(O)C(F)(F)F (single isomer, unassigned) [Compound 26, 17-amino-6,13,15-tris(trifluoromethyl)-19-oxa-3,4,18-triazatricyclo[12.3.1.12,5]nonadeca-1(18),2,4,14,16-pentaene-6,13-diol] | < 500 nM |
| Nc1cc(C(F)(F)F)c2nc1-c1nnc(o1)C(O)(C(F)(F)F)CCCCCCC2(O)C(F)(F)F (single isomer, unassigned) [Compound 27, 17-amino-6,13,15-tris(trifluoromethyl)-19-oxa-3,4,18-triazatricyclo[12.3.1.12,5]nonadeca-1(18),2,4,14,16-pentaene-6,13-diol] | < 500 nM |
| Nc1cc(C(F)(F)F)c2nc1-c1nnc(o1)C(O)(C(F)(F)F)CCCCCCC2(O)C(F)(F)F (single isomer, unassigned) [Compound 28, 17-amino-6,13,15-tris(trifluoromethyl)-19-oxa-3,4,18-triazatricyclo[12.3.1.12,5]nonadeca-1(18),2,4,14,16-pentaene-6,13-diol] | > 1000 nM |
| CC(C)(C)ON=C1CCCCCC[C@](O)(C(F)(F)F)C2=NN=C(O2)c2nc1c(C(F)(F)F)cc2N (single isomer, unassigned) [Compound 29] | < 500 nM |
| CC(C)(C)ON=C1CCCCCC[C@](O)(C(F)(F)F)C2=NN=C(O2)c2nc1c(C(F)(F)F)cc2N (single isomer, unassigned) [Compound 30] | < 500 nM |
| Nc1cc(C(F)(F)F)c2nc1-c1nnc(o1)[C@@](O)(C(F)(F)F)CCCCCCC2=NO (single isomer, unassigned) [Compound 31] | < 500 nM |
| Nc1cc(C(F)(F)F)c2nc1-c1nnc(o1)C(O)(C(F)(F)F)CCCCCCC1=NN=C2O1 (single isomer, unassigned) [Compound 32, 20-amino-6,18-bis(trifluoromethyl)-22,23-dioxa-3,4,14,15,21-pentaazatetracyclo[15.3.1.12,5.113,16]tricosa-1(21),2,4,13,15,17,19-heptaen-6-ol] | < 500 nM |
| Nc1cc(C(F)(F)F)c2nc1-c1nnc(o1)C(O)(C(F)(F)F)CCCCCCC1=NN=C2O1 (single isomer, unassigned) [Compound 33, 20-amino-6,18-bis(trifluoromethyl)-22,23-dioxa-3,4,14,15,21-pentaazatetracyclo[15.3.1.12,5.113,16]tricosa-1(21),2,4,13,15,17,19-heptaen-6-ol] | > 1000 nM |
| Nc1cc(C(F)(F)F)c2nc1-c1nnc(o1)C(O)(C(F)(F)F)CCC(=O)CCCC2=O (single isomer, unassigned) [Compound 34, 17-amino-6-hydroxy-6,15-bis(trifluoromethyl)-19-oxa-3,4,18-triazatricyclo[12.3.1.12,5]nonadeca-1(18),2,4,14,16-pentaene-9,13-dione] | < 500 nM |
| Nc1cc(C(F)(F)F)c2nc1-c1nnc(o1)C(O)(C(F)(F)F)CCC(=O)CCCC2=O (single isomer, unassigned) [Compound 35, 17-amino-6-hydroxy-6,15-bis(trifluoromethyl)-19-oxa-3,4,18-triazatricyclo[12.3.1.12,5]nonadeca-1(18),2,4,14,16-pentaene-9,13-dione] | > 1000 nM |
| Nc1cc(C(F)(F)F)c2nc1-c1nnc(o1)C(O)(C(F)(F)F)CCCC(=O)CCC2=O (single isomer, unassigned) [Compound 36, 17-amino-6-hydroxy-6,15-bis(trifluoromethyl)-19-oxa-3,4,18-triazatricyclo[12.3.1.12,5]nonadeca-1(18),2,4,14,16-pentaene-10,13-dione] | > 1000 nM |
| Nc1cc(C(F)(F)F)c2nc1-c1nnc(o1)C(O)(C(F)(F)F)CCCC(=O)CCC2=O (single isomer, unassigned) [Compound 37, 17-amino-6-hydroxy-6,15-bis(trifluoromethyl)-19-oxa-3,4,18-triazatricyclo[12.3.1.12,5]nonadeca-1(18),2,4,14,16-pentaene-10,13-dione] | > 1000 nM |
| CC1CCCCC[C@](O)(C(F)(F)F)C2=NN=C(O2)c2nc(c(C(F)(F)F)cc2N)C1 (single isomer, unassigned) [Compound 55] | < 500 nM |
| CC1CCCCC[C@](O)(C(F)(F)F)C2=NN=C(O2)c2nc(c(C(F)(F)F)cc2N)C1 (single isomer, unassigned) [Compound 56] | < 500 nM |
| Nc1cc(C(F)(F)F)c2nc1-c1nnc(o1)C(O)(C(F)(F)F)c1cc(ccc1F)CCCCC2=O (single isomer, unassigned) [Compound 57, 20-amino-8-fluoro-6-hydroxy-6,18-bis(trifluoromethyl)-23-oxa-3,4,21-triazatetracyclo[15.3.1.12,5.17,11]tricosa-1(21),2,4,7(22),8,10,17,19-octaen-16-one] | < 500 nM |
| Nc1cc(C(F)(F)F)c2nc1-c1nnc(o1)C(O)(C(F)(F)F)c1cc(ccc1F)CCCCC2=O (single isomer, unassigned) [Compound 58, 20-amino-8-fluoro-6-hydroxy-6,18-bis(trifluoromethyl)-23-oxa-3,4,21-triazatetracyclo[15.3.1.12,5.17,11]tricosa-1(21),2,4,7(22),8,10,17,19-octaen-16-one] | 500 to 1000 nM |
| Nc1cc(C(F)(F)F)c2nc1-c1nnc(o1)C(O)(C(F)(F)F)c1cc(ccc1F)C=CCCC2=O (single isomer, unassigned) [Compound 59, 20-amino-8-fluoro-6-hydroxy-6,18-bis(trifluoromethyl)-23-oxa-3,4,21-triazatetracyclo[15.3.1.12,5.17,11]tricosa-1(21),2,4,7(22),8,10,12,17,19-nonaen-16-one] | > 1000 nM |
| Nc1cc(C(F)(F)F)c2nc1-c1nnc(o1)C(O)(C(F)(F)F)c1cc(ccc1F)C=CCCC2=O (single isomer, unassigned) [Compound 60, 20-amino-8-fluoro-6-hydroxy-6,18-bis(trifluoromethyl)-23-oxa-3,4,21-triazatetracyclo[15.3.1.12,5.17,11]tricosa-1(21),2,4,7(22),8,10,12,17,19-nonaen-16-one] | < 500 nM |
